# According to article PMC12423301, “Astrocytic monoamine oxidase B (MAOB)–gamma-aminobutyric acid (GABA) axis as a molecular brake on repair following spinal cord injury” (Signal Transduction and Targeted Therapy, 2025):
# Read-outs that look alike come from different tables or passages of the source.
# Tests used:
# [1] = Preclinical pharmacokinetics in mice; format: in vivo, mouse
# [2] = Phase 1 clinical trial: pharmacokinetics
# Description: All subjects provided consent for this phase 1 clinical trial study. The study comprised 11 cohorts: single ascending dose (SAD) and multiple ascending dose (MAD) studies. […] Cohort 3 employed a two-period crossover design with a 14-day washout.
# The parameters related to plasma concentrations were calculated via non-compartmental analysis using the linear-up log-down method in Phoenix WinNonlin software version 8.3 (Certara, US). The parameters related to urine concentrations were calculated using the linear trapezoidal linear interpolation method.
# In the SAD study, plasma samples were collected using sodium K2-EDTA tubes at pre-dose, 0.33, 0.75, 1, 2, 3, 4, 6, 8, 12, 24, 48, 72, 96, 120, and 144 h after dosing. Urine samples were collected up to 72 h post-dose. In the MAD study, plasma samples were collected at pre-dose, 0.33, 0.75, 1, 2, 3, 4, 6, 8, 12 and 24 h after the administration of the first dose, and at pre-dose of the third to seventh doses. After the administration of the seventh dose, plasma samples were collected at the same time points as after the first dose, with additional sampling points at 48, 72, 96, 120, and 144 h post-dose. Urine samples were collected for 24 h after the administration of the first dose and for 72 h after the seventh dose.
# For the clinical trial, dose proportionality of the PK parameters (Cmax, Cmax,ss, AUClast, and AUCτ) was assessed using power model using the following equation: log (PK parameter) = β0 + β1 log (dose). The regression slope (β1) and the intercept (β0) were estimated with 95% confidence interval (CI) using PROC REG in SAS version 9.4. The PK parameters were considered dose-proportional if the 95% CI of the β1 included 1. […] Using a linear mixed effect model, the logarithmized PK parameters were analyzed with the high-gat meal as a fixed effect and inter-individual differences as a random effect. The GMR and its 90% CI of the PK parameters of the high-fat meal were calculated relative to those in the fasting state. […] In elderly subjects, the same analyses were performed and compared to those of healthy younger adults.
# rat SCI model = test: BBB locomotor test in rat SCI model; format: in vivo, Sprague-Dawley (SD) rats; details: for average BBB score: at PI 10w
# Description: For the establishment of the mouse and rat SCI models, we followed methods consistent with those of previous studies.[65]–[67] In mice, a laminectomy was performed at thoracic level 10 (T10), and self-closing forceps (11485-11, Fine Science Tools; 0.10 × 0.06 mm tip, 11 cm) were applied to the exposed spinal cord for 3 s to induce injury. In rats, a laminectomy was performed at thoracic level 9 (T9), followed by the application of the same self-closing forceps (11485-11, Fine Science Tools) for 10 s. Each “Sham” group or “SCI” group indicates animals operated by only laminectomy or SCI, respectively.
# (S)-2-(((4’-Trifluoromethylbiphenyl-4-yl)methyl)amino)propanamide methane-sulfonate (KDS2010) was dissolved in distilled water. For SD rats, KDS2010 was administered via the drinking water ad libitum. […] To evaluate dose-dependent effects, additional groups received 20 mg/kg/day or 30 mg/kg/day starting at PI 2 weeks. To achieve consistent exposure across animals, we meticulously monitored the daily water intake and body weight of each rat throughout the study. As shown in the Extended Data (Supplementary Table 1), water consumption was calculated weekly via a formula based on body weight (e.g., d.w = weight × 0.09 at week 0; gradually tapering to weight × 0.075 by weeks 8–9). Importantly, all animals were confirmed to have consumed the entirety of the provided medicated water each day, ensuring full ingestion of the intended dose (10 mg/kg/day for the majority of groups, and 20/30 mg/kg/day for the dose-dependent experiments).
# Behavioral test was performed every week for a total of 11 weeks (1 week before and 10 weeks after the surgical operation) to assess locomotor recovery. The BBB motor score[22] or BMS score[17] was used to evaluate the quality of hindlimb movement during open field locomotion in rats or mice, respectively. In the first recovery phase, the range of joint movement and the presence of the foot closure on the floor were checked. In the second phase, the recovery of weighted stepping was checked. In the third phase, gait coordination and tail movement were assessed. These scores are “ordinal and the magnitude of behavioral change between ranks may not be consistent,” as originally described.[17] To perform the group allocation in a blinded manner during data collection, animal preparation and behavior tests were performed by at least two different investigators.
# In the BBB locomotor test with drug administration beginning at PI 2w, the animals were initially subjected to injury, and then divided into two groups at PI 2w based on the basis of similar averaged BBB scores. Subsequently, these groups were treated with either the vehicle (SCI + V) or the drug (SCI+drug) from PI 2w. To exclude incompletely generated severe rat SCI animals, we established the following criteria: a score difference of more than 4 between PI 1w and 2w, and a score exceeding 8 at PI 2w.
# [3] = system: Parkinson’s disease mouse model; details: cited from earlier work
# [4] = ICR mouse, 5 mg/kg single intravenous administration
# [5] = in vivo, APP/PS1 mouse, 1 mg/kg single oral administration
# [6] = in vivo, APP/PS1 mouse, 10 mg/kg single oral administration
# [7] = in vivo, ICR mouse, 5 mg/kg single intravenous administration
# [8] = in vivo, ICR mouse, 5 mg/kg single oral administration
# [9] = in vivo, ICR mouse, 10 mg/kg single oral administration
# [10] = in vivo, ICR mouse, 30 mg/kg single oral administration
smiles,measurement,setting,value
"CS(=O)(=O)O.C[C@H](NCc1ccc(-c2ccc(C(F)(F)F)cc2)cc1)C(N)=O [KDS2010, (S)-2-(((4’-Trifluoromethylbiphenyl-4-yl)methyl)amino)propanamide methane-sulfonate]",CL/F,[1]; [4],28.47 ± 1.37 mL/min/kg
same,Vd/F,[1]; [4],10.439 ± 0.682 L/kg
same,AUC(0-inf),[1]; [5],1130 ± 173 ng·h/mL
same,half-life,[1]; [5],4.76 ± 0.43 h
same,CL/F,"[1]; in vivo, APP/PS1 mouse, 1 mg/kg single oral administration, read-out: CL/F (converted)",15 mL/min/kg
same,Vd/F,"[1]; in vivo, APP/PS1 mouse, 1 mg/kg single oral administration, read-out: Vd/F",6.13 ± 0.767 L/kg
same,AUC(0-inf),[1]; [6],12900 ± 740 ng·h/mL
same,half-life,[1]; [6],5.7 ± 0.7 h
same,CL/F,"[1]; in vivo, APP/PS1 mouse, 10 mg/kg single oral administration, read-out: CL/F (converted)",14.3 mL/min/kg
same,Vd/F,"[1]; in vivo, APP/PS1 mouse, 10 mg/kg single oral administration, read-out: Vd/F",7.01 ± 0.934 L/kg
same,AUC(0-inf),[1]; [7],3590 ± 71.7 ng·h/mL
same,half-life,[1]; [7],4.2 ± 0.2 h
same,AUC(0-inf),[1]; [8],4180 ± 100 ng·h/mL
same,half-life,[1]; [8],4.2 ± 0.1 h
same,CL/F,"[1]; in vivo, ICR mouse, 5 mg/kg single oral administration, read-out: CL/F (converted)",18 mL/min/kg
same,Vd/F,"[1]; in vivo, ICR mouse, 5 mg/kg single oral administration, read-out: Vd/F",6.6 ± 0.38 L/kg
same,AUC(0-inf),[1]; [9],7920 ± 457 ng·h/mL
same,half-life,[1]; [9],4.4 ± 0.2 h
same,CL/F,"[1]; in vivo, ICR mouse, 10 mg/kg single oral administration, read-out: CL/F (converted)",22 mL/min/kg
same,Vd/F,"[1]; in vivo, ICR mouse, 10 mg/kg single oral administration, read-out: Vd/F",8.41 ± 0.843 L/kg
same,AUC(0-inf),[1]; [10],27100 ± 1090 ng·h/mL
same,half-life,[1]; [10],4.3 ± 0.4 h
same,CL/F,"[1]; in vivo, ICR mouse, 30 mg/kg single oral administration, read-out: CL/F (converted)",14.5 mL/min/kg
same,Vd/F,"[1]; in vivo, ICR mouse, 30 mg/kg single oral administration, read-out: Vd/F",5.45 ± 0.512 L/kg
same,"increase of systemic exposure (AUCinf and AUCτ,ss) with dose",[2]; 60 mg to 480 mg,dose-proportional
same,higher exposure in elderly subjects,"[2]; 120 mg for 7 days, elderly vs young",approximately 25%
same,"pharmacokinetic profiles, Korean vs Caucasian subjects","[2]; 60, 120, 240, 480 mg at steady state",similar
same,unchanged drug excreted in the urine,[2]; healthy humans,Less than 1%
same,AUC(0-inf),"[2]; human, in vivo, 120 mg",13900 ng·h/mL
same,effect of a high-fat meal on systemic exposure (Cmax and AUCinf),"[2]; human, in vivo, 120 mg",did not affect
same,half-life,"[2]; human, in vivo, po",44.2 h
same,time to maximum plasma concentration (Cmax),"[2]; human, in vivo, po",3 h
same,BBB locomotor scores,"rat SCI model; 10, 20, and 30 mpk from subacute phase, at 10w PI",dose-dependent improvement
same,average BBB score,rat SCI model; SCI + KDS 2w: 10 mg/kg/day in drinking water from PI 2w (subacute),10.62
same,recovery in BBB locomotor test and ladder rung test,rat SCI model; SCI + KDS 6w: 10 mpk from chronic phase (PI 6w),significant motor recovery
same,average BBB score,"rat SCI model; SCI + KDS 1 d/Re: 10 mpk from acute phase (PI 1 d), recovery subgroup",15.36
same,behavioral recovery in BBB locomotor test,"rat SCI model; SCI+KDS1d/No: 10 mpk from acute phase, no-recovery subgroup",did not show any behavioral recovery
same,pharmacologically active dose (PAD),"rat SCI model; SD rats, for 8 weeks",10 mpk
same,motor impairment,[3],reverse
